Assay results from the CheMixHub viscosity set.

Assay: xn = mol fraction of the nth substance listed

C1CC[NH2+]C1.CCCCCCCC(=O)[O-] + CCO
viscosity [mPa·s], 101 kPa
Conditions	x1 = 0.1638	x1 = 0.3038	x1 = 0.4308	x1 = 0.5046	x1 = 0.5837	x1 = 0.7453	x1 = 0.838	x1 = 0.9223
293.15 K	3.7	8.2	14	17.06	23.1	36.6	47.3	58.2
298.15 K	3.85	7.02	12.99	16.3	21.3	34.08	44.23	52.4
303.15 K	3	5.7	10.5	13.39	17.6	29.14	36.3	42.7
308.15 K	2.9	7.3	11.21	14.5	18.1	25.4	31.3	36.4
313.15 K	2.7	6.8	9.8	11.79	15	22	26.8	30.3

O=S1(=O)CCCC1 + CCO
viscosity [mPa·s], 101 kPa
Conditions	293.15 K	298.15 K	303.15 K	308.15 K	313.15 K	323.15 K
x1 = 0.06211	1.21	1.103	1.006	–	0.845	0.714
x1 = 0.068	–	–	1.008	0.9247	0.8482	–
x1 = 0.1147	–	–	1.063	0.976	0.8945	–
x1 = 0.131	1.316	1.197	1.094	–	0.919	0.778
x1 = 0.2039	1.49	1.35	1.228	–	1.031	0.875
x1 = 0.2119	–	–	1.241	1.135	1.039	–
x1 = 0.271	–	–	1.38	1.264	1.155	–
x1 = 0.283	1.734	1.57	1.421	–	1.192	1.009
x1 = 0.3691	2.087	1.883	1.699	–	1.421	1.202
x1 = 0.374	–	–	1.696	1.546	1.417	–
x1 = 0.4622	2.558	2.292	2.09	–	1.734	1.467
x1 = 0.4742	–	–	2.116	1.922	1.755	–
x1 = 0.5688	3.306	2.96	2.668	–	2.207	1.857
x1 = 0.5738	–	–	2.691	2.436	2.216	–
x1 = 0.6865	4.608	4.075	3.682	–	3.001	2.511
x1 = 0.7403	–	–	4.239	3.82	3.446	–
x1 = 0.8141	6.959	6.153	5.503	–	4.423	3.632
x1 = 0.8574	–	–	6.141	5.47	4.899	–

Cc1cccc(C)c1 + CCOC(C)=O
viscosity [mPa·s], 101 kPa
Conditions	298.15 K	308.15 K
x2 = 0.048	0.568	0.515
x2 = 0.1498	0.541	0.492
x2 = 0.2498	0.518	0.472
x2 = 0.3493	0.498	0.454
x2 = 0.4469	0.481	0.439
x2 = 0.4972	0.473	0.432
x2 = 0.5494	0.466	0.425
x2 = 0.6495	0.454	0.414
x2 = 0.7511	0.444	0.404
x2 = 0.8509	0.436	0.396
x2 = 0.9461	0.43	0.39

O=S1(=O)CCCC1 + CCOC(C)=O
303.15 K, 101 kPa
Conditions	viscosity [mPa·s]
x1 = 0.8548	5.285
x1 = 0.9799	9.205

Nc1ccccc1Cl + CCOCCO
303.15 K, 101 kPa
Conditions	viscosity [mPa·s]
x1 = 0.0966	2.088
x1 = 0.1696	2.266
x1 = 0.2725	2.507
x1 = 0.3613	2.709
x1 = 0.4791	2.967
x1 = 0.5648	3.147
x1 = 0.68	3.372
x1 = 0.7804	3.544
x1 = 0.8884	3.696

O=S1(=O)CCCC1 + CCc1ccccc1
viscosity [mPa·s]
Conditions	101 kPa	101.3 kPa
303.15 K, x2 = 0.9106	0.7155	0.7155
313.15 K, x2 = 0.7254	0.9235	–
323.15 K, x2 = 0.7254	0.8125	0.8125
323.15 K, x2 = 0.8194	0.6653	0.6653

CCCCn1cc[n+](C)c1.F[B-](F)(F)F + CN1CCCC1=O
101 kPa
Conditions	viscosity [mPa·s]
298.15 K, x1 = 0.2779	9.05
298.15 K, x1 = 0.957	86.3
303.15 K, x1 = 0.2779	7.82
303.15 K, x1 = 0.3423	9.48
308.15 K, x1 = 0.4657	9.19

CCCCCCCCCCCCCCCCCC(=O)O + CN1CCC[C@H]1c1cccnc1
viscosity [mPa·s], 101 kPa
Conditions	x2 = 0.3991	x2 = 0.4952	x2 = 0.6034	x2 = 0.6986	x2 = 0.7961	x2 = 0.8973
298.15 K	–	–	–	21.18	14.22	7.79
323.15 K	26.04	18.6	12.3	8.571	6.045	4.003

CCC(C)O (configuration not stated) + CN(C)C=O
viscosity [mPa·s], 101 kPa
Conditions	298.15 K	303.15 K	308.15 K	313.15 K
x2 = 0.085	2.48	2.11	1.78	1.52
x2 = 0.164	2.2	1.83	1.57	1.35
x2 = 0.2446	2	1.65	1.41	1.23
x2 = 0.3503	1.8	1.5	1.29	1.13
x2 = 0.4398	1.65	1.39	1.19	1.07
x2 = 0.5035	1.51	–	–	–
x2 = 0.5738	1.44	1.23	1.08	1.01
x2 = 0.6512	1.32	1.14	1.02	0.97
x2 = 0.7515	1.17	1.03	0.93	0.91
x2 = 0.841	1.03	0.93	0.85	0.86
x2 = 0.9435	0.88	0.82	0.76	0.79

CCCCn1cc[n+](C)c1.F[B-](F)(F)F + CN(C)C=O
101.33 kPa
Conditions	viscosity [mPa·s]
293.15 K, x1 = 0.24	8.99
293.15 K, x1 = 0.83	76.67
298.15 K, x1 = 0.335	6.371
298.15 K, x1 = 0.34	8.92
298.15 K, x1 = 0.3986	7.783
298.15 K, x1 = 0.8976	78.41
298.15 K, x1 = 0.94	88.43
303.15 K, x1 = 0.43	8.05
303.15 K, x1 = 0.94	74.19
308.15 K, x1 = 0.55	9.58

Cc1ccc(O)cc1 + CN(C)C=O
viscosity [mPa·s], 101 kPa
Conditions	303.15 K	308.15 K	313.15 K	318.15 K
x1 = 0.0758	0.908	0.787	0.769	0.732
x1 = 0.1553	1.098	0.988	0.913	0.845
x1 = 0.2404	1.444	1.208	–	1.087
x1 = 0.3298	1.832	1.611	1.465	1.339
x1 = 0.4247	2.452	2.165	1.952	1.755
x1 = 0.5155	–	2.886	–	–
x1 = 0.5255	3.351	–	–	2.273
x1 = 0.5256	–	–	2.562	–
x1 = 0.6327	4.534	3.905	3.375	2.954
x1 = 0.7472	6.256	5.298	4.489	3.852
x1 = 0.8692	7.994	6.386	5.777	4.485

CC(O)CC(C)(C)O (configuration not stated) + CN(C)c1ccccc1
viscosity [mPa·s], 101 kPa
Conditions	x1 = 0.0947	x1 = 0.1893	x1 = 0.2866	x1 = 0.3878	x1 = 0.4988	x1 = 0.5875	x1 = 0.6895	x1 = 0.7899	x1 = 0.8859
308.15 K	1.042	1.107	1.216	1.395	1.761	2.037	2.999	5.285	9.275
318.15 K	0.8643	0.9274	1.015	1.185	1.416	1.688	2.505	4.534	8.117

C1CC[NH2+]C1.CCCCCCCC(=O)[O-] + CO
viscosity [mPa·s], 101 kPa
Conditions	x1 = 0.1021	x1 = 0.2025	x1 = 0.3023	x1 = 0.3896	x1 = 0.5185	x1 = 0.5972	x1 = 0.7086	x1 = 0.7895	x1 = 0.844
293.15 K	4.58	7.4	10.73	14.46	22.6	28	38.68	47.37	55.2
298.15 K	3.6	6.53	10.37	13.1	19.44	24.57	33.84	41.18	48.18
303.15 K	3.6	6	8.9	10.82	15.84	20.9	27.67	34.45	38.6
308.15 K	4.08	5.69	8.64	10.07	15.33	19.02	24.21	29.56	33.63
313.15 K	4	5.4	7.17	9.15	13.26	15.69	21.37	25.39	28.41

CCC(C)O (configuration not stated) + CO
298.15 K, 101.33 kPa
Conditions	viscosity [mPa·s]
x2 = 0.1153	2.681
x2 = 0.2124	2.341
x2 = 0.2972	2.063
x2 = 0.3974	1.765
x2 = 0.4714	1.563
x2 = 0.5959	1.263
x2 = 0.671	1.102
x2 = 0.8045	0.852
x2 = 0.8927	0.711

Cc1cccc(C)c1 + CO
293.15 K, 101 kPa
Conditions	viscosity [mPa·s]
x2 = 0.2	0.622
x2 = 0.4	0.626
x2 = 0.5	0.646
x2 = 0.6	0.662
x2 = 0.7	0.654
x2 = 0.8	0.641

O=S1(=O)CCCC1 + CO
viscosity [mPa·s], 101 kPa
Conditions	298.15 K	303.15 K	308.15 K	313.15 K	323.15 K
x1 = 0.0496	0.607	0.569	–	0.498	0.437
x1 = 0.068	–	0.5856	0.5474	0.5133	–
x1 = 0.0966	0.694	0.648	–	0.565	0.495
x1 = 0.1103	–	0.6512	0.6081	0.5686	–
x1 = 0.1632	0.814	0.757	–	0.661	0.579
x1 = 0.1658	–	0.756	0.7042	0.6574	–
x1 = 0.2274	–	0.8999	0.8344	0.7787	–
x1 = 0.2282	0.985	0.916	–	0.792	0.686
x1 = 0.306	1.227	1.137	–	0.986	0.867
x1 = 0.3087	–	1.13	1.047	0.9753	–
x1 = 0.3969	1.587	1.458	–	1.238	1.062
x1 = 0.4056	–	1.495	1.378	1.279	–
x1 = 0.5037	2.208	2.022	–	1.687	1.467
x1 = 0.5284	–	2.142	1.96	1.803	–
x1 = 0.6337	3.233	2.982	–	2.466	2.125
x1 = 0.6422	–	3.025	2.753	2.515	–
x1 = 0.7703	–	4.551	4.1	3.722	–
x1 = 0.7949	5.516	5.126	–	4.165	3.476

Cc1cccc(C)c1 + COCCO
viscosity [mPa·s], 101 kPa
Conditions	298.15 K	308.15 K
x2 = 0.0519	0.598	0.513
x2 = 0.1498	0.635	0.543
x2 = 0.2504	0.681	0.58
x2 = 0.3476	0.737	0.624
x2 = 0.452	0.81	0.68
x2 = 0.4991	0.848	0.709
x2 = 0.5538	0.897	0.746
x2 = 0.6476	0.996	0.819
x2 = 0.7504	1.127	0.915
x2 = 0.8491	1.282	1.026
x2 = 0.9558	1.491	1.172

Nc1ccccc1Cl + COCCO
303.15 K, 101 kPa
Conditions	viscosity [mPa·s]
x1 = 0.093	2.184
x1 = 0.157	2.388
x1 = 0.2242	2.597
x1 = 0.3168	2.811
x1 = 0.415	3.024
x1 = 0.5093	3.223
x1 = 0.6253	3.414
x1 = 0.7713	3.581
x1 = 0.8914	3.711

O=S1(=O)CCCC1 + COCCO
303.15 K, 101 kPa
Conditions	viscosity [mPa·s]
x1 = 0.0483	1.2
x1 = 0.0994	1.054
x1 = 0.1962	1.489
x1 = 0.2953	2.053
x1 = 0.3486	2.251
x1 = 0.4007	2.703
x1 = 0.4569	3.258
x1 = 0.4997	3.863
x1 = 0.5991	4.997
x1 = 0.7126	6.301
x1 = 0.7971	7.413
x1 = 0.8496	8.345
x1 = 0.8986	9.013
